Key:
hKv1.4 = target: T1, hKv1.4 (Homo sapiens, UniProt P22459); experiment: Selectivity patch clamp, LTK cells expressing hKv1.4; assay type: cell-based
T1 construct: expressed in transfected cells; host or cells: LTK (dexamethasone-induced)
Description: (§1) L929 cells stably expressing mKv1.1, rKv1.2, mKv1.3, and mKv3.1 and MEL cells stably expressing hKv1.5 have been previously described (Grissmer 1994, Mol. Pharmacol. 45: 1227). hKv1.4 and rKv4.2 were stably expressed in LTK (HK1–7). Channel expression was induced 8–12 h before the electrophysiological experiments by 4 μM dexamethasone (Sigma). HEK-293 cells stably expressing the skeletal muscle sodium channel hSkM1 (SCN4A) were generated in the laboratory of Dr. F. Lehmann-Horn. HEK-293 cells stably expressing hSloα were obtained from Dr. Andrew Tinker (Center for Clinical Pharmacology, University College London). L929, MEL, LTK and HEK cells were maintained in DMEM containing 10% heat-inactivated fetal calf serum (Summit Biotechnology, Fort Collins, Colo.) and 250 μg/ml G418 (Life Technologies, Inc.). Rat basophilic leukemia (RBL) cells were maintained in Eagle's minimum essential medium with 2 mM L-glutamine and 10% fetal calf serum. CHO cell were maintained in F12K media (ATCC). Human leukemic Jurkat E6–1 cells were cultured in RPMI 1640 supplemented with 10% fetal calf serum and 1 mM L-glutamine. T84 cells were maintained in a 1:1 mixture of Ham's F12 medium and DMEM with 2.5 mM L-glutamine and 10% fetal calf serum.
(§2) Recordings from the Jurkat SKCa channel were made in K^+ aspartate Ringer (Na^+ was replaced by K^+) with the same internal pipette solution. […]

mKv3.1 = target: T2, mKv3.1 (Mus musculus, UniProt P15388); experiment: Selectivity patch clamp, L929 cells expressing mKv3.1; assay type: cell-based
T2 construct: expressed in transfected cells; host or cells: L929
Description: as §1, §2

rKv4.2 = target: T3, rKv4.2 (Rattus norvegicus, UniProt Q63881); experiment: Selectivity patch clamp, LTK cells expressing rKv4.2; assay type: cell-based
T3 construct: expressed in transfected cells; host or cells: LTK (dexamethasone-induced)
Description: as §1, §2

Jurkat-SK = target: T4, Jurkat-SK (Homo sapiens, UniProt Q9H2S1); experiment: Selectivity patch clamp, Jurkat SKCa channel; assay type: cell-based
T4 construct: endogenous in cells; host or cells: Jurkat E6-1
Description: as §1, §2

BK (hSloα) = target: T5, BK (hSloα) (Homo sapiens, UniProt Q12791); experiment: Selectivity patch clamp, HEK-293 cells expressing hSloα (BKCa); assay type: cell-based
T5 construct: expressed in transfected cells; host or cells: HEK-293
Description: as §1, §2

HSKM1 = target: T6, HSKM1 (Homo sapiens, UniProt P35499); experiment: Selectivity patch clamp, HEK-293 cells expressing skeletal muscle sodium channel hSkM1 (SCN4A); assay type: cell-based
T6 construct: expressed in transfected cells; host or cells: HEK-293
Description: as §1, §2

[1] = target: Kv1.1–1.5, Kv3.1, Kv4.2, Jurkat-SKCa, BKCa, hSKM1-Na, CRAC and lymphocyte chloride channels; experiment: Selectivity on other cloned and native ion channels; assay type: cell-based; settings: all channels of the panel
Description: as §1, §2

COS-7 cells = experiment: In vitro toxicity, propidium iodide uptake, 48 h; assay type: cell-based, African green monkey
Description: (§3) The in vitro toxicity was performed as follows.

CHO cells = experiment: In vitro toxicity, propidium iodide uptake, 48 h; assay type: cell-based, Chinese hamster
Description: as §3

RBL-2H3 cells = experiment: In vitro toxicity, propidium iodide uptake, 48 h; assay type: cell-based, rat
Description: as §3

C2F3 cells = experiment: In vitro toxicity, propidium iodide uptake, 48 h; assay type: cell-based, human
Description: as §3

Jurkat E6-1 cells = experiment: In vitro toxicity, propidium iodide uptake, 48 h; assay type: cell-based, human
Description: as §3

NGP cells = experiment: In vitro toxicity, propidium iodide uptake, 48 h; assay type: cell-based, human
Description: as §3

NLF cells = experiment: In vitro toxicity, propidium iodide uptake, 48 h; assay type: cell-based, human
Description: as §3

CF-1 BR mice = experiment: ISO acute systemic toxicity study; settings: single i.v. 0.5 mg/kg
Description: An ISO acute systemic toxicity study was performed in CF-1 BR mice (17–19 g) according to the guidelines of the United States Pharmacopeia XXII. […] Five control mice were injected with an equal volume of the vehicle. The mice were weighed at the beginning of the study and at its termination.

[2] = Hydrolytic stability by HPLC; settings: for stability against hydrolysis: over 72 h
Description: A Waters 590 liquid chromatograph with a Waters 746 integrator and a Waters 486 UVN is detector, and a 25 cm Lichrospher RP18 column (5-μM particle size) was used. The mobile phase consisted of K2HPO4 25 mM, KH2PO4 30 mM, methanol at 262:13:725. The chromatographic separation was performed at 20° C. with a flow rate of 1.0 ml/min, the absorbance of the elluent was monitored at 210 nm.
Hydrolysis profiles (10 μM compound with 20% acetonitrile) were carried out in Soerensen phosphate buffer (pH 7.4 and pH 5.0) in a total volume of 10 ml. 100 μl samples were collected 0, 1, 2, 3, 4, 5, 24, 48 and 72 hours after incubation, with shaking, in a waterbath at 37° C. and manually injected into the HPLC over Rheodyne 7125 system. For profiles at pH 1.0 artificial stomach fluid (DAB 9), containing 2 g NaCl, 3,2 g pepsin and 80 ml 1 M HCL in 1.0 L of water was used. After 0, 1 and 2 hours 400 μl of sample were collected and extracted three times with 500 μl of ethyl ether by vortexing. The combined extracts were than evaporated to dryness by passing nitrogen through the solution. The residue was than dissolved in 400 μl of mobile phase of which […] were injected in the HPLC.

T4 sequence (Q9H2S1 whole entry): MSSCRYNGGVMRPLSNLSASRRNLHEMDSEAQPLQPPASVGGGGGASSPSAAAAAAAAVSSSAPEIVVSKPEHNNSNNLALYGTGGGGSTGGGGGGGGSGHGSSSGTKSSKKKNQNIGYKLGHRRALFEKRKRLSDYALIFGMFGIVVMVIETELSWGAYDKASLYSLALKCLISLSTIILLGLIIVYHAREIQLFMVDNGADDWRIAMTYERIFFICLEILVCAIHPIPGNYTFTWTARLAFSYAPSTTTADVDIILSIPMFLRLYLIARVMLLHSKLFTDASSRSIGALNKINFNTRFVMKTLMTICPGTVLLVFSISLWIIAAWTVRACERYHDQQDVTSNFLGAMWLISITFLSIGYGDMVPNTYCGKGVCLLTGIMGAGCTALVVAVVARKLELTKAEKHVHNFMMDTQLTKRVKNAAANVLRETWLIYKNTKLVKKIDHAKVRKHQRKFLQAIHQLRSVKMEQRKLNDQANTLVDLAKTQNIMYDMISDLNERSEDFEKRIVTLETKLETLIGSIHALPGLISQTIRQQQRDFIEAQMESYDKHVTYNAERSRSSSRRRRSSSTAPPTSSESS
T5 sequence (Q12791 whole entry): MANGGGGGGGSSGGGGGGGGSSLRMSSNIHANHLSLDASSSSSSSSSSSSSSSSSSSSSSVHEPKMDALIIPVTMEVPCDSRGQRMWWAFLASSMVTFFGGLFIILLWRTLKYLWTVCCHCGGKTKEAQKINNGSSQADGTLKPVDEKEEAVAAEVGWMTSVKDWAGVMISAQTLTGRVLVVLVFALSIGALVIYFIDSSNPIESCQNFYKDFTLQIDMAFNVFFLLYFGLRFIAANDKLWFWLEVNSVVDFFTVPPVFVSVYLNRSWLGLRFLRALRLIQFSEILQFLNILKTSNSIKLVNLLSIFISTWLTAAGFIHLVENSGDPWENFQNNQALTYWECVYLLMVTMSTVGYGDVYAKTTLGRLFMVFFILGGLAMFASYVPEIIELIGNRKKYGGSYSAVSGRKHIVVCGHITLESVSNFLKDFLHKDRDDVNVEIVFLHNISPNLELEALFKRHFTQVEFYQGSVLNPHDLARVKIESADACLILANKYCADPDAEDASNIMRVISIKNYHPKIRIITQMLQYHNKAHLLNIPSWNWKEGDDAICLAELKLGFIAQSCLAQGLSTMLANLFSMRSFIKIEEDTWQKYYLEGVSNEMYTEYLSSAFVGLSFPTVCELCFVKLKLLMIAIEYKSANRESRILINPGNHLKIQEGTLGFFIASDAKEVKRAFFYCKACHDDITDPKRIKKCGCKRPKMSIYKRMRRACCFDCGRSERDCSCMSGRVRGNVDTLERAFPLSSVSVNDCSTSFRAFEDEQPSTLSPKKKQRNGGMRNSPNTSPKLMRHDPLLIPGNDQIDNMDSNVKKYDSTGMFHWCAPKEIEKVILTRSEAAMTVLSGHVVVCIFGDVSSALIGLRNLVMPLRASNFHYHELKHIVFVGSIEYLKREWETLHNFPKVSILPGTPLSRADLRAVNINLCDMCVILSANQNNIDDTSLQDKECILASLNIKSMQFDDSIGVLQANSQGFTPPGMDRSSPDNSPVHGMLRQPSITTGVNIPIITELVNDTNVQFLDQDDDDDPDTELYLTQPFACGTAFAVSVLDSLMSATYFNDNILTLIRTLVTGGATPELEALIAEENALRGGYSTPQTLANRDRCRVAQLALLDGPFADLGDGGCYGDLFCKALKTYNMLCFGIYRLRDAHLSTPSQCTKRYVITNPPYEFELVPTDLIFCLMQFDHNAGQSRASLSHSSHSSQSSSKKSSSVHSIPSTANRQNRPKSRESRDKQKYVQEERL
T2 sequence (P15388 whole entry): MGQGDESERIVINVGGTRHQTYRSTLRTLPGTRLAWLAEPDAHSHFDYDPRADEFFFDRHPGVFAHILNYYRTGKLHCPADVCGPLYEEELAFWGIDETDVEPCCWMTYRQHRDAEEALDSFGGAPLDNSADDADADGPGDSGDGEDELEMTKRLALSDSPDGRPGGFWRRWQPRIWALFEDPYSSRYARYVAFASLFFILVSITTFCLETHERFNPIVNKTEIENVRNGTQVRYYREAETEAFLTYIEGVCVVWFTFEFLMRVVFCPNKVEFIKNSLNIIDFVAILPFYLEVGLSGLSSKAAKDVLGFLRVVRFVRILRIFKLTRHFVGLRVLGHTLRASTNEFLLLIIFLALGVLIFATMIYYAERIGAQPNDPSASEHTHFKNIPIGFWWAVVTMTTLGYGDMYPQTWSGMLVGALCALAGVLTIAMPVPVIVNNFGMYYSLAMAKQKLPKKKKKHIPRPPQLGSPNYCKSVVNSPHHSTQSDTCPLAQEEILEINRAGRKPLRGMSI
T1 sequence (P22459 whole entry): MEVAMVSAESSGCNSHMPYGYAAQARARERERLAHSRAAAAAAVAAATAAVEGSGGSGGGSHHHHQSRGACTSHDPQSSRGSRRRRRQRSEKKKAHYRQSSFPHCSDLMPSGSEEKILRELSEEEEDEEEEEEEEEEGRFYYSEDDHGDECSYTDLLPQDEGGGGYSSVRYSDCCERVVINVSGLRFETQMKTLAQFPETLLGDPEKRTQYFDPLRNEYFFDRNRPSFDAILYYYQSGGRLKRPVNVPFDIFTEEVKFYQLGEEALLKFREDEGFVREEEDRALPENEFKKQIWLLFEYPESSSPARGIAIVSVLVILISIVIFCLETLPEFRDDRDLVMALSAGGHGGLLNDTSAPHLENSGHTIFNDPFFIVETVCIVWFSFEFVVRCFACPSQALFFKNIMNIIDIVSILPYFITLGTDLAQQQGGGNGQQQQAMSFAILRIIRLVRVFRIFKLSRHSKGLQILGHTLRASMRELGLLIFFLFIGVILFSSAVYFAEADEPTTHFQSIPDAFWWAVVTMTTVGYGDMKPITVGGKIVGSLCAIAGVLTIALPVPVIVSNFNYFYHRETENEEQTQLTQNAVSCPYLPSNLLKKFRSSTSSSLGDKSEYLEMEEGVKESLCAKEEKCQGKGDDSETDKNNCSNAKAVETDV
T3 sequence (Q63881 whole entry): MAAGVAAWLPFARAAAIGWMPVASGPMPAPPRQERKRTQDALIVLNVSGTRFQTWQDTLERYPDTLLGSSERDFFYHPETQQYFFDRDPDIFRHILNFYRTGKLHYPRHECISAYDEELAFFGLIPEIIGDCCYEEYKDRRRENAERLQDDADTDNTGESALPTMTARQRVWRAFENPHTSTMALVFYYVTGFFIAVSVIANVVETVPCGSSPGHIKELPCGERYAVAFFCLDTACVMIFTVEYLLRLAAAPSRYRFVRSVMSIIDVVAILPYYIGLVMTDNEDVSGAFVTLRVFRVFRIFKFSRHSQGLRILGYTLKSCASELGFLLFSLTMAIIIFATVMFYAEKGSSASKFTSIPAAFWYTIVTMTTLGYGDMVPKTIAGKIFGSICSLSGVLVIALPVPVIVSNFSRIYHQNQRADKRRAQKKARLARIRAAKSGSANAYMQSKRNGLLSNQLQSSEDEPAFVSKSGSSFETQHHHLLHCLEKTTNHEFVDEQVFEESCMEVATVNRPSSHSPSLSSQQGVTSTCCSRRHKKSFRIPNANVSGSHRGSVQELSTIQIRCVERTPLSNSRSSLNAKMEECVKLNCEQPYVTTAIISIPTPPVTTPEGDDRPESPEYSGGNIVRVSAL

Clc1ccccc1C(c1ccccc1)(c1ccccc1)n1cccn1 [Compound T34, 1-[(2-Chlorophenyl)diphenylmethyl]-1H-pyrazole]
Kd (hKv1.4): 7.5 ± 0.41 µM
Kd (mKv3.1): 30 ± 5 µM
Kd (rKv4.2): 6 ± 0.87 µM
Kd (Jurkat-SK): 23 ± 2 µM
Kd (BK (hSloα)): 25 ± 1.8 µM
Kd (HSKM1): 8 ± 0.6 µM
Kd [1]: ≥ 5 µM
percentage of dead cells (PI uptake) (COS-7 cells; 2 μM): 3.6%
percentage of dead cells (PI uptake) (COS-7 cells; 5 μM): 4.5%
percentage of dead cells (PI uptake) (CHO cells; 2 μM): 5.6%
percentage of dead cells (PI uptake) (CHO cells; 5 μM): 4.7%
percentage of dead cells (PI uptake) (RBL-2H3 cells; 2 μM): 7.9%
percentage of dead cells (PI uptake) (RBL-2H3 cells; 5 μM): 8.8%
percentage of dead cells (PI uptake) (C2F3 cells; 2 μM): 15.8%
percentage of dead cells (PI uptake) (C2F3 cells; 5 μM): 12.8%
percentage of dead cells (PI uptake) (Jurkat E6-1 cells; 2 μM): 2.5%
percentage of dead cells (PI uptake) (Jurkat E6-1 cells; 5 μM): 3.2%
percentage of dead cells (PI uptake) (NGP cells; 2 μM): 10.9%
percentage of dead cells (PI uptake) (NGP cells; 5 μM): 5.9%
percentage of dead cells (PI uptake) (NLF cells; 2 μM): 10.8%
percentage of dead cells (PI uptake) (NLF cells; 5 μM): 10.8%
clinical appearance (CF-1 BR mice; 7-day study): all animals appeared clinically normal
mortality (CF-1 BR mice; 7-day study): no mortality
body weight on day 1 (CF-1 BR mice; day 1): 17.8 g
body weight on day 7 (CF-1 BR mice; day 7): 27.0 g
half-life ([2]; artificial stomach fluid (DAB 9), pH 1): ~45 min
stability against hydrolysis ([2]; pH 5.0, 37° C.): completely stable
stability against hydrolysis ([2]; pH 7.4, 37° C.): completely stable
stability against hydrolysis ([2]; pH 10): completely stable
logP (logP): 4
